Counter-ions that a name gives are not always drawn.
Columns and labels:
human full length PDE3B = human full length PDE3B (Homo sapiens (Human), UniProt Q13370); assay: Assay 5 PDE3B enzyme inhibition (3H-cAMP SPA); type: biochemical; conditions: Sf9 cell extract
Summary of the method: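 Compounds in DMSO are mixed with diluted PDE3B extract from Sf9 cells, and reactions start on adding tritiated cAMP. After 60 min at room temperature, yttrium scintillation proximity beads terminate hydrolysis and signal is counted; IC50 values come from sigmoidal dose-response curves.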

SK-MEL-3 cells = assay: Assay 1 cell proliferation measurement (CTG, 72 h), SK-MEL-3; type: cell-based, human; conditions: Homo sapiens, SK-MEL3; Assay 1, 72 h, Cell Titer Glo; read-out: SK-MEL-3 IC50 [nM] (melanoma)
Summary of the method: (§1)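 Growth inhibition relative to a 0 h baseline plate and 0.3% DMSO control, with IC50 fitted by 4-parameter curve. Compound exposure lasted 72 h at 37 °C across a 2.5-fold, 10-step series starting generally at 100 nM final.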

human full length PDE3A = human full length PDE3A (Homo sapiens (Human), UniProt Q14432); assay: Assay 4 PDE3A enzyme inhibition (3H-cAMP SPA); type: biochemical; conditions: Sf9 cell extract
Summary of the method: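 Enzyme: Sf9 extract with overexpressed full-length PDE3A; substrate [8-3H]cAMP, 0.025 μCi/well; 60 min, room temperature, Tris/HCl pH 7.5 buffer with MgCl2, EDTA, BSA.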

HeLa cells = assay: Assay 1 cell proliferation measurement (CTG, 72 h), HeLa; type: cell-based, human; conditions: Homo sapiens, HeLa; Assay 1, 72 h, Cell Titer Glo; read-out: HeLa IC50 [nM] (Cervical cancer)
Summary of the method: as §1

Chain of human full length PDE3A (Q14432 whole entry): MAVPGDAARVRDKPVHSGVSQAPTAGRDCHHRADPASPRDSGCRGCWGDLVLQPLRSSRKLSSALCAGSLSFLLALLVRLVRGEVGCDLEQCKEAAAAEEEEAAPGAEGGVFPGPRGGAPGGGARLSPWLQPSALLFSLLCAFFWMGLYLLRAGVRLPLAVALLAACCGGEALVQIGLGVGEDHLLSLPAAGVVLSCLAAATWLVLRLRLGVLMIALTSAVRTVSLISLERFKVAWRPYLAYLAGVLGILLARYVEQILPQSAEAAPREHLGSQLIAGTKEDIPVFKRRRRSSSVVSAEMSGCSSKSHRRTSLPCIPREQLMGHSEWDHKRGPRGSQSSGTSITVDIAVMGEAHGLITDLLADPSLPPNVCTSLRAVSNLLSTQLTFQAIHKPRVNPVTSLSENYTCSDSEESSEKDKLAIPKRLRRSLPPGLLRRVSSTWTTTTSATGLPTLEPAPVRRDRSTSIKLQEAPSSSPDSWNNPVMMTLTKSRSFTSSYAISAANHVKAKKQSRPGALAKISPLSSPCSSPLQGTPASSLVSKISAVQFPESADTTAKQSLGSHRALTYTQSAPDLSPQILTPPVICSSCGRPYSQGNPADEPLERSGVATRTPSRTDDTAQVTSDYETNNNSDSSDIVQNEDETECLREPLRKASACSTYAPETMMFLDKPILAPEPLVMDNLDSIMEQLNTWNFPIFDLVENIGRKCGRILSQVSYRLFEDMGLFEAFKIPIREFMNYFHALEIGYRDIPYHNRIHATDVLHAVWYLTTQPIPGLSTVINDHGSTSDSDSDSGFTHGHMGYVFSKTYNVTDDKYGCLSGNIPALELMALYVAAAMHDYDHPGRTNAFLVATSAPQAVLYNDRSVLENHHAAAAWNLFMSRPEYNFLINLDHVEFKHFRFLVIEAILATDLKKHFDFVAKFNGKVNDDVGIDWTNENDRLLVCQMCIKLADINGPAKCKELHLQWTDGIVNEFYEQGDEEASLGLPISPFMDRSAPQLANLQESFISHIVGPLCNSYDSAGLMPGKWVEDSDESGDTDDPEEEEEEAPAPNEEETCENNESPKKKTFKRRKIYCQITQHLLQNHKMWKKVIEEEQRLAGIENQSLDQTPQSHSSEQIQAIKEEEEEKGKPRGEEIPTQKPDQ
Chain of human full length PDE3B (Q13370 whole entry): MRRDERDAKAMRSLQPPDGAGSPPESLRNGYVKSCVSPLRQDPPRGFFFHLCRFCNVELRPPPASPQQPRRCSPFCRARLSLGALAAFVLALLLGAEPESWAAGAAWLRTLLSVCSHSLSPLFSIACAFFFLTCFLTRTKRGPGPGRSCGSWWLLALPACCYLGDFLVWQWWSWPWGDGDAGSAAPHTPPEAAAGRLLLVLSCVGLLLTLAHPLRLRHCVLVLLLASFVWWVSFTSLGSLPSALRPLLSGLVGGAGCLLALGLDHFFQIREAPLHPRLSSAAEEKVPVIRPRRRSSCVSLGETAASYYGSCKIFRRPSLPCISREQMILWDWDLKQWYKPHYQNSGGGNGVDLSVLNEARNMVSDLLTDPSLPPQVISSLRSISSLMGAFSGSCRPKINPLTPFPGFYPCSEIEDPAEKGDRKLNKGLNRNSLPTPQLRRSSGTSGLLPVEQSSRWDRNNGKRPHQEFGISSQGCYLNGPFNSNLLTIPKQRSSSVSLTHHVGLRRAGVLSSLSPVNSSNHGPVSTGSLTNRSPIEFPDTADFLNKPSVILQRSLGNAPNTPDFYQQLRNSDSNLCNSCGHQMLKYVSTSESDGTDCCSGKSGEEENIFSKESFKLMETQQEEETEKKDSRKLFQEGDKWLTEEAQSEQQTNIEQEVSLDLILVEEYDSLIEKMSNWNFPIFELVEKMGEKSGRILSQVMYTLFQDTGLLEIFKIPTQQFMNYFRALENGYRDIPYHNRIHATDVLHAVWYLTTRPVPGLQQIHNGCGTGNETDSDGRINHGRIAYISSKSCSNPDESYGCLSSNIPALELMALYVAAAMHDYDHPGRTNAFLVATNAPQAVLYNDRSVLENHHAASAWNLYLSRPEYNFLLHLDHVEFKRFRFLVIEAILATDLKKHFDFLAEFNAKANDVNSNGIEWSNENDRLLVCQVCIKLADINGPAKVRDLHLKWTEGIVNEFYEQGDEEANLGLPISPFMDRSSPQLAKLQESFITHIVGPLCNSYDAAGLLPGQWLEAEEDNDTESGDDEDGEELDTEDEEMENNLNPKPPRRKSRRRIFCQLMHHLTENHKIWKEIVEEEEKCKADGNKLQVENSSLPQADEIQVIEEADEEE

IC50 (human full length PDE3B)	IC50 (SK-MEL-3 cells)	IC50 (human full length PDE3A)	IC50 (HeLa cells)	SMILES
24 nM	2 nM	26 nM	1 nM	O=C1NN=C(c2ccc(NCC3CC3)c(C(F)(F)F)c2)CO1 [Example 212, 5-{4-[(Cyclopropylmethyl)amino]-3-(trifluoromethyl)phenyl}-3,6-dihydro-2H-1,3,4-oxadiazin-2-one]
89 nM	4 nM	35 nM	3 nM	C[C@H](O)CNc1ccc(C2=NNC(=O)OC2)cc1C(F)(F)F [Example 218, 5-[4-{[(2S)-2-Hydroxypropyl]amino}-3-(trifluoromethyl)phenyl]-3,6-dihydro-2H-1,3,4-oxadiazin-2-one]
131 nM	14 nM	90 nM	6 nM	CC(C)CCNc1ccc(C2=NNC(=O)OC2)cc1C(F)(F)F [Example 220, 5-{4-[(3-Methylbutyl)amino]-3-(trifluoromethyl)phenyl}-3,6-dihydro-2H-1,3,4-oxadiazin-2-one]
120 nM	1 nM	76 nM	1 nM	COCCNc1ccc(C2=NNC(=O)OC2)cc1C(F)(F)F [Example 222, 5-{4-[(2-Methoxyethyl)amino]-3-(trifluoromethyl)phenyl}-3,6-dihydro-2H-1,3,4-oxadiazin-2-one]
120 nM	9 nM	75 nM	6 nM	O=C1NN=C(c2ccc(N3CC[C@@H](O)C3)c(C(F)(F)F)c2)CO1 [Example 257, 5-{4-[(3R)-3-Hydroxypyrrolidin-1-yl]-3-(trifluoromethyl)phenyl}-3,6-dihydro-2H-1,3,4-oxadiazin-2-one]
600 nM	> 100 nM	550 nM	38 nM	O=C1NN=C(c2ccc(N[C@H]3CCC[C@H]3O)c(C(F)(F)F)c2)CO1 [Example 261, 5-[4-{[(1S,2R)-2-Hydroxycyclopentyl]amino}-3-(trifluoromethyl)phenyl]-3,6-dihydro-2H-1,3,4-oxadiazin-2-one]
20 nM	5 nM	18 nM	2 nM	O=C1NN=C(c2ccc(NC3COC3)c(C(F)(F)F)c2)CO1 [Example 262, 5-{4-[(Oxetan-3-yl)amino]-3-(trifluoromethyl)phenyl}-3,6-dihydro-2H-1,3,4-oxadiazin-2-one]
10 nM	1 nM	19 nM	1 nM	O=C1NN=C(c2ccc([C@H]3CC[C@H](O)CC3)c(C(F)(F)F)c2)CO1 [Example 272, (trans)-5-{4-[4-hydroxycyclohexyl]-3-(trifluoromethyl)phenyl}-3,6-dihydro-2H-1,3,4-oxadiazin-2-one]
53 nM	1 nM	44 nM	1 nM	O=C1NN=C(c2ccc([C@H]3CC[C@@H](O)CC3)c(C(F)(F)F)c2)CO1 [Example 273, (cis)-5-{4-[4-Hydroxycyclohexyl]-3-(trifluoromethyl)phenyl}-3,6-dihydro-2H-1,3,4-oxadiazin-2-one]
400 nM	31 nM	300 nM	19 nM	NCCNc1ccc(C2=NNC(=O)OC2)cc1C(F)(F)F [Example 274, 5-{4-[(2-Aminoethyl)amino]-3-(trifluoromethyl)phenyl}-3,6-dihydro-2H-1,3,4-oxadiazin-2-one-salt with hydrochloric acid]
> 1000 nM	80 nM	> 1000 nM	58 nM	CC(C)(O)c1ccc(C2=NNC(=O)OC2)cc1C(F)(F)F [Example 278, 5-[4-(2-Hydroxypropan-2-yl)-3-(trifluoromethyl)phenyl]-3,6-dihydro-2H-1,3,4-oxadiazin-2-one]
180 nM	> 100 nM	70 nM	61 nM	CC(C)(O)CCNc1ccc(C2=NNC(=O)OC2)cc1C(F)(F)F [Example 319, 5-{4-[(3-hydroxy-3-methylbutyl)amino]-3-(trifluoromethyl)phenyl}-3,6-dihydro-2H-1,3,4-oxadiazin-2-one]
500 nM	54 nM	290 nM	> 100 nM	CC(C)(N)CNc1ccc(C2=NNC(=O)OC2)cc1C(F)(F)F [Example 321, 5-{4-[(2-amino-2-methylpropyl)amino]-3-(trifluoromethyl)phenyl}-3,6-dihydro-2H-1,3,4-oxadiazin-2-one]

The next lines start with the compound.

SMILES	IC50 (human full length PDE3B)	IC50 (SK-MEL-3 cells)	IC50 (human full length PDE3A)	IC50 (HeLa cells)
O=C1NN=C(c2ccc(N[C@H]3CC[C@H](O)CC3)c(C(F)(F)F)c2)CO1 [Example 211, (trans)-5-[4-{[4-Hydroxycyclohexyl]amino}-3-(trifluoromethyl)phenyl]-3,6-dihydro-2H-1,3,4-oxadiazin-2-one]	54 nM	2 nM	29 nM	2 nM
CC1(CNc2ccc(C3=NNC(=O)OC3)cc2C(F)(F)F)COC1 [Example 213, 5-[4-{[(3-Methyloxetan-3-yl)methyl]amino}-3-(trifluoromethyl)phenyl]-3,6-dihydro-2H-1,3,4-oxadiazin-2-one]	71 nM	21 nM	68 nM	14 nM
COCCCNc1ccc(C2=NNC(=O)OC2)cc1C(F)(F)F [Example 214, 5-{4-[(3-Methoxypropyl)amino]-3-(trifluoromethyl)phenyl}-3,6-dihydro-2H-1,3,4-oxadiazin-2-one]	73 nM	2 nM	59 nM	1 nM
C[C@@H](O)CNc1ccc(C2=NNC(=O)OC2)cc1C(F)(F)F [Example 216, 5-[4-{[(2R)-2-Hydroxypropyl]amino}-3-(trifluoromethyl)phenyl]-3,6-dihydro-2H-1,3,4-oxadiazin-2-one]	167 nM	7 nM	103 nM	6 nM
C[C@@H](O)CCNc1ccc(C2=NNC(=O)OC2)cc1C(F)(F)F [Example 217, 5-[4-{[(3R)-3-Hydroxybutyl]amino}-3-(trifluoromethyl)phenyl]-3,6-dihydro-2H-1,3,4-oxadiazin-2-one]	210 nM	16 nM	65 nM	14 nM
O=C1NN=C(c2ccc(NCC3(O)CCC3)c(C(F)(F)F)c2)CO1 [Example 219, 5-[4-{[(1-Hydroxycyclobutyl)methyl]amino}-3-(trifluoromethyl)phenyl]-3,6-dihydro-2H-1,3,4-oxadiazin-2-one]	97 nM	13 nM	58 nM	8 nM
CC(C)CNc1ccc(C2=NNC(=O)OC2)cc1C(F)(F)F [Example 221, 5-{4-[(2-Methylpropyl)amino]-3-(trifluoromethyl)phenyl}-3,6-dihydro-2H-1,3,4-oxadiazin-2-one]	56 nM	2 nM	28 nM	1 nM
CCN(C)c1ccc(C2=NNC(=O)OC2)cc1C(F)(F)F [Example 223, 5-{4-[Ethyl(methyl)amino]-3-(trifluoromethyl)phenyl}-3,6-dihydro-2H-1,3,4-oxadiazin-2-one]	100 nM	9 nM	140 nM	6 nM
O=C1NN=C(c2ccc(NC[C@H]3CCCO3)c(C(F)(F)F)c2)CO1 [Example 225, 5-[4-({[(2R)-Oxolan-2-yl]methyl}amino)-3-(trifluoromethyl)phenyl]-3,6-dihydro-2H-1,3,4-oxadiazin-2-one]	220 nM	5 nM	45 nM	3 nM
COC(C)(C)CNc1ccc(C2=NNC(=O)OC2)cc1C(F)(F)F [Example 258, 5-{4-[(2-Methoxy-2-methylpropyl)amino]-3-(trifluoromethyl)phenyl}-3,6-dihydro-2H-1,3,4-oxadiazin-2-one]	130 nM	6 nM	41 nM	3 nM
O=C1NN=C(c2ccc(NC[C@@H]3CCCO3)c(C(F)(F)F)c2)CO1 [Example 259, 5-[4-({[(2S)-Oxolan-2-yl]methyl}amino)-3-(trifluoromethyl)phenyl]-3,6-dihydro-2H-1,3,4-oxadiazin-2-one]	110 nM	3 nM	34 nM	1 nM
CC(C)n1cc(-c2ccc(C3=NNC(=O)OC3)cc2C(F)F)cn1 [Example 263, 5-{3-(Difluoromethyl)-4-[1-(propan-2-yl)-1H-pyrazol-4-yl]phenyl}-3,6-dihydro-2H-1,3,4-oxadiazin-2-one]	46 nM	32 nM	50 nM	9 nM
O=C1NN=C(c2cc(F)c(N3CCOCC3)c(C(F)(F)F)c2)CO1 [Example 264, 5-[3-Fluoro-4-(morpholin-4-yl)-5-(trifluoromethyl)phenyl]-3,6-dihydro-2H-1,3,4-oxadiazin-2-one]	112 nM	2 nM	75 nM	2 nM
CN(C)CCNc1ccc(C2=NNC(=O)OC2)cc1C(F)(F)F [Example 323, 5-[4-{[2-(dimethylamino)ethyl]amino}-3-(trifluoromethyl)phenyl]-3,6-dihydro-2H-1,3,4-oxadiazin-2-one]	> 910 nM	> 100 nM	> 280 nM	> 84 nM
